In ChEMBL document CHEMBL1140173, “Clerodane diterpenoids with NGF-potentiating activity from Ptychopetalum olacoides” (J Nat Prod, 2008):
Activity calls are given as the source filed them. The calls are words filed in the database; no cut-off is given here.

Columns and labels:
[1] = system: PC-12; assay: Induction of neurite outgrowth in rat PC12 cells in presence of nerve growth factor at 0.1 to 10.0 uM; format: functional, cell-based
[2] = system: PC-12; assay: Induction of neurite outgrowth in rat PC12 cells in absence of nerve growth factor at 0.1 to 10.0 uM; format: functional, cell-based

SMILES: CC1=CCC[C@@H]2[C@]3(CCc4ccoc4)C(=O)O[C@H](C[C@@]12C)[C@H]3C
- Activity [1]: inactive
- Activity [2]: inactive

SMILES: CO[C@H]1O[C@@H]2C[C@@]3(C)C(C)=CCC[C@@H]3[C@@]1(CCc1ccoc1)[C@@H]2C
- Activity [1]: inactive
- Activity [2]: inactive
